Data published in patent publication US20190127381A1, “SUBSTITUTED FUSED PYRIMIDINONE COMPOUNDS” (TORRENT PHARMACEUTICALS LIMITED, priority 2016, published 2019).

Experiments:
[1] = target: T1, purified recombinant human PI3K enzyme γ (Homo sapiens, UniProt P48736); assay: Inhibition of PI3-Kinase enzymatic activity (HTRF enzyme assay), γ; assay type: biochemical; conditions: 1 μM compound; PI3K γ 100 ng/well; PIP2 10 μM; ATP 50 μM; read-out: Percentage inhibition of PI3K activity, γ
T1 construct: purchased Invitrogen, USA
T1 sequence (P48736 whole entry): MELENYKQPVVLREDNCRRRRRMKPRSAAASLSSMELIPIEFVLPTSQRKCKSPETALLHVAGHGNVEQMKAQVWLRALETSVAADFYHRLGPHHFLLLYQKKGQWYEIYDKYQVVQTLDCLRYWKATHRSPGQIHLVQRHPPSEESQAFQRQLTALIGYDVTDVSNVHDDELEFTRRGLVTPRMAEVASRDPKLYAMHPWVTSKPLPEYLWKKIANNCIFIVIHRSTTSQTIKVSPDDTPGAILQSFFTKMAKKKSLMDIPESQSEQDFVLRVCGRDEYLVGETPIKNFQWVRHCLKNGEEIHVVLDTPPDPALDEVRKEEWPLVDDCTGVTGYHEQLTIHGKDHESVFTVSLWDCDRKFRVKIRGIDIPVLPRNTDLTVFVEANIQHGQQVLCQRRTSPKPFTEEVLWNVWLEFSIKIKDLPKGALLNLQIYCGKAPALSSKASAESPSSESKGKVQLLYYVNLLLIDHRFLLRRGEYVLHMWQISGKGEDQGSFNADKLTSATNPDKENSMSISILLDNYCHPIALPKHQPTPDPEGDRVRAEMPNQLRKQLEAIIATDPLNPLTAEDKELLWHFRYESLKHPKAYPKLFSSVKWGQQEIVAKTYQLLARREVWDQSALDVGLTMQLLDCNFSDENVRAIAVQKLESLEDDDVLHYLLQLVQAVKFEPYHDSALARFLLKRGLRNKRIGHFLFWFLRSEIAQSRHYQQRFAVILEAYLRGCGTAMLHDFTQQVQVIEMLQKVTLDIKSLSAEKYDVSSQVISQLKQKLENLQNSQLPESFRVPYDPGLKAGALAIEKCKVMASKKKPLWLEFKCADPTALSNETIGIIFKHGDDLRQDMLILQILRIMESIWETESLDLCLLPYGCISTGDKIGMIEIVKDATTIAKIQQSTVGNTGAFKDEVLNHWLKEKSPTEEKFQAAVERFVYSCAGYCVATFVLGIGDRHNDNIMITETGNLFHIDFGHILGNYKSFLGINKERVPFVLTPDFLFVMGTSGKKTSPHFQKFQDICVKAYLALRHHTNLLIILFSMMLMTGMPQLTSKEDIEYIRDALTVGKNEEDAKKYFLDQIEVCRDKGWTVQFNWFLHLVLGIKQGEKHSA
Procedure: (§1) Inhibition of PI3-Kinase enzymatic activity was determined using a homogeneous time-resolved fluorescence (HTRF) kit from Eurofins. 1 μM of Compounds of present invention were premixed with DMSO. The experiment was initiated by mixing 1.0% DMSO as vehicle/compounds with purified recombinant human PI3K enzyme {δ (50 ng/well); γ (100 ng/well)} (Invitrogen, USA) and substrate (PIP2, 10 μM) in the wells and incubation for 15 min at room temperature. There after ATP was added (δ at 200 μM, and γ at 50 μM) in to the wells containing reaction mixture, followed by re-incubation for 30 minutes at room temperature. Reaction was terminated by addition of a stopping solution and was further incubated for 4 hours at room temperature before reading using Envision multimode reader (Perkin Elmer). Percentage inhibition of PI3K activity was calculated by determining ratio of specific europium 665 nm energy transfer signal to reference 615 nm signals.

[2] = target: T2, purified recombinant human PI3K enzyme δ (Homo sapiens, UniProt O00329); assay: Inhibition of PI3-Kinase enzymatic activity (HTRF enzyme assay), δ; assay type: biochemical; conditions: 1 μM compound; PI3K δ 50 ng/well; PIP2 10 μM; ATP 200 μM; read-out: Percentage inhibition of PI3K activity, δ
T2 construct: purchased Invitrogen, USA
T2 sequence (O00329 whole entry): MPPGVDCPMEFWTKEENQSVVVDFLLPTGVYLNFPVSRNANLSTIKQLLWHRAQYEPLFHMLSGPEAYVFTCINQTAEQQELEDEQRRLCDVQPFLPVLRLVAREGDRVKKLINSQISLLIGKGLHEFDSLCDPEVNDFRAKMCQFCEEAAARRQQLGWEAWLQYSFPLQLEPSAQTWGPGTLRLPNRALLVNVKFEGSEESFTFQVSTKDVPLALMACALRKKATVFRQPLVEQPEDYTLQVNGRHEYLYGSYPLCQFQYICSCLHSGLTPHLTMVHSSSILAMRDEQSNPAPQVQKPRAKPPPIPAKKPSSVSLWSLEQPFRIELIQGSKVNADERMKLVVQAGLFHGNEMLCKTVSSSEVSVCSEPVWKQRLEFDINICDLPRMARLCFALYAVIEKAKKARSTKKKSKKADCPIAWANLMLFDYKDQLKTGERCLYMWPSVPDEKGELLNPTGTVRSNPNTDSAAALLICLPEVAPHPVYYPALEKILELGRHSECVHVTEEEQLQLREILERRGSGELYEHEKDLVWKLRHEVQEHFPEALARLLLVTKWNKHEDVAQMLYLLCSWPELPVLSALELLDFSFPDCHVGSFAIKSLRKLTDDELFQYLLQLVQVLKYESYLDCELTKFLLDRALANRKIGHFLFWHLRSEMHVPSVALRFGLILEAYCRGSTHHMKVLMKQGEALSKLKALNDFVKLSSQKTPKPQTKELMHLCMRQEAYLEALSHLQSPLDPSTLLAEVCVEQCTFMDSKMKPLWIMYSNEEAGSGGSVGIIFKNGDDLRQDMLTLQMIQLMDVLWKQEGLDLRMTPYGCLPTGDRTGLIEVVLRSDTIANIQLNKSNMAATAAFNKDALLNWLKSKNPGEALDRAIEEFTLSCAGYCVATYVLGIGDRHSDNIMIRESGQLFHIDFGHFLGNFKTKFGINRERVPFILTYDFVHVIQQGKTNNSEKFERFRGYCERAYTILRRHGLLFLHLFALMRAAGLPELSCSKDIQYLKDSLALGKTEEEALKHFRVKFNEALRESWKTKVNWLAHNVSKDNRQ
T2 sequence (P27986 whole entry partner): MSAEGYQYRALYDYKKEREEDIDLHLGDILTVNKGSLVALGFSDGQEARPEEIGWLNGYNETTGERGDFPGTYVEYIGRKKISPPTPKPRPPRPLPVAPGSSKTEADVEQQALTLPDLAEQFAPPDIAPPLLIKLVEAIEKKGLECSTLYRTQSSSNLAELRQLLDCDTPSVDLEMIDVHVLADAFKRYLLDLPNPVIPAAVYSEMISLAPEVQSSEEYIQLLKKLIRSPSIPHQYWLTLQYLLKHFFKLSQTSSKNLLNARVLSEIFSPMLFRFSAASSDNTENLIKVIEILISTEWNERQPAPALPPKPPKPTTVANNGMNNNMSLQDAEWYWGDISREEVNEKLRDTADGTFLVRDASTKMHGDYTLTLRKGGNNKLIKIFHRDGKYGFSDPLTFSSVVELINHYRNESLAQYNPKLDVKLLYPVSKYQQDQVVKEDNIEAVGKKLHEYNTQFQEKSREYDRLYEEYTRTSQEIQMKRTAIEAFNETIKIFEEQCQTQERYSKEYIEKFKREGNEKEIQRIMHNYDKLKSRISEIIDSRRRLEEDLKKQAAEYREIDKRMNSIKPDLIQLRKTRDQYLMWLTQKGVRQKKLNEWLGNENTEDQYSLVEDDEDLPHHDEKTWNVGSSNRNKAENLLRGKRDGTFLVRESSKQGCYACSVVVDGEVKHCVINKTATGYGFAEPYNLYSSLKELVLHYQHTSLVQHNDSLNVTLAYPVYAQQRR
Procedure: as §1

inhibition at 1 µM [1] [%]	inhibition at 1 µM [2] [%]	Structure (SMILES)
60 to 80	80 to 100	Cc1ccccc1C1(n2c(Cn3nc(-c4ccc(O)c5c4CC(C)(C)O5)c4c(N)ncnc43)nc3cccc(-c4ccnn4C)c3c2=O)CC1 [compound 59, 2-{[4-amino-3-(7-hydroxy-2,2-dimethyl-2,3-dihydro-1-benzofuran-4-yl)-1H-pyrazolo[3,4-d]pyrimidin-1-yl]methyl}-3-[1-(2-methylphenyl)cyclopropyl]-5-(1-methyl-1H-pyrazol-5-yl)quinazolin-4(3H)-one]
80 to 100	80 to 100	Cc1ccc(C)n1-n1c(Cn2nc(-c3ccc(O)c4c3CC(C)(C)O4)c3c(N)ncnc32)nc2cccc(C#CCO)c2c1=O [compound 42, 2-{[4-amino-3-(7-hydroxy-2,2-dimethyl-2,3-dihydro-1-benzofuran-4-yl)-1H-pyrazolo[3,4-d]pyrimidin-1-yl]methyl}-3-(2,5-dimethyl-1H-pyrrol-1-yl)-5-(3-hydroxyprop-1-yn-1-yl)quinazolin-4(3H)-one]
60 to 80	80 to 100	Cc1cccc(C2(n3c(Cn4nc(-c5ccc(O)c6c5CC(C)(C)O6)c5c(N)ncnc54)nc4cccc(-c5ccnn5C)c4c3=O)CC2)c1 [compound 33, 2-{[4-amino-3-(7-hydroxy-2,2-dimethyl-2,3-dihydro-1-benzofuran-4-yl)-1H-pyrazolo[3,4-d]pyrimidin-1-yl]methyl}-3-[1-(3-methylphenyl)cyclopropyl]-5-(1-methyl-1H-pyrazol-5-yl)quinazolin-4(3H)-one]
80 to 100	80 to 100	Cc1cccc2nc(Cn3nc(-c4ccc(O)c5c4CC(C)(C)O5)c4c(N)ncnc43)n(-n3cccc3)c(=O)c12 [Compound No. 2, 2-{[4-amino-3-(7-hydroxy-2,2-dimethyl-2,3-dihydro-1-benzofuran-4-yl)-1H-pyrazolo[3,4-d]pyrimidin-1-yl]methyl}-5-methyl-3-(1H-pyrrol-1-yl)quinazolin-4(3H)-one]
60 to 80	80 to 100	CC1(C)Cc2c(-c3nn(Cc4nc5cccc(-c6cccnc6)c5c(=O)n4-n4cccc4)c4ncnc(N)c34)ccc(O)c2O1 [compound 10, 2-{[4-amino-3-(7-hydroxy-2,2-dimethyl-2,3-dihydro-1-benzofuran-4-yl)-1H-pyrazolo[3,4-d]pyrimidin-1-yl]methyl}-5-(pyridin-3-yl)-3-(1H-pyrrol-1-yl)quinazolin-4(3H)-one]
60 to 80	80 to 100	Cc1cccc2nc(Cn3nc(-c4ccc(O)c5c4CC(C)(C)O5)c4c(N)ncnc43)n(-n3cccn3)c(=O)c12 [compound 7, 2-{[4-amino-3-(7-hydroxy-2,2-dimethyl-2,3-dihydro-1-benzofuran-4-yl)-1H-pyrazolo[3,4-d]pyrimidin-1-yl]methyl}-5-methyl-3-(1H-pyrazol-1-yl)quinazolin-4(3H)-one]
60 to 80	80 to 100	Cc1ccc(C)n1-n1c(Cn2nc(-c3ccc(O)c4c3CC(C)(C)O4)c3c(N)ncnc32)nc2cccc(C#CCN3CCN(C)CC3)c2c1=O [compound 57, 2-{[4-amino-3-(7-hydroxy-2,2-dimethyl-2,3-dihydro-1-benzofuran-4-yl)-1H-pyrazolo[3,4-d]pyrimidin-1-yl]methyl}-3-(2,5-dimethyl-1H-pyrrol-1-yl)-5-[3-(4-methylpiperazin-1-yl)prop-1-yn-1-yl]quinazolin-4(3H)-one]
80 to 100	80 to 100	CC1(C)Cc2c(-c3nn(Cc4nc5cccc(Br)c5c(=O)n4C4(c5ccccc5)CC4)c4ncnc(N)c34)ccc(O)c2O1 [compound 13, 2-{[4-amino-3-(7-hydroxy-2,2-dimethyl-2,3-dihydro-1-benzofuran-4-yl)-1H-pyrazolo[3,4-d]pyrimidin-1-yl]methyl}-5-bromo-3-(1-phenylcyclopropyl)quinazolin-4(3H)-one]
60 to 80	80 to 100	COc1ccc(-c2nn(Cc3nc4cccc(C)c4c(=O)n3-n3cccc3)c3ncnc(N)c23)c2c1OC(C)(C)C2 [compound 84, 2-{[4-amino-3-(7-methoxy-2,2-dimethyl-2,3-dihydro-1-benzofuran-4-yl)-1H-pyrazolo[3,4-d]pyrimidin-1-yl]methyl}-5-methyl-3-(1H-pyrrol-1-yl)quinazolin-4(3H)-one]
80 to 100	80 to 100	CC1(C)Cc2c(-c3nn(Cc4nc5cccc(-c6ccsc6)c5c(=O)n4-n4cccc4)c4ncnc(N)c34)ccc(O)c2O1 [compound 14, 2-{[4-amino-3-(7-hydroxy-2,2-dimethyl-2,3-dihydro-1-benzofuran-4-yl)-1H-pyrazolo[3,4-d]pyrimidin-1-yl]methyl}-3-(1H-pyrrol-1-yl)-5-(thiophen-3-yl)quinazolin-4(3H)-one]
80 to 100	80 to 100	Cn1cccc1-c1cccc2nc(Cn3nc(-c4ccc(O)c5c4CC(C)(C)O5)c4c(N)ncnc43)n(-n3cccc3)c(=O)c12 [compound 71, 2-{[4-amino-3-(7-hydroxy-2,2-dimethyl-2,3-dihydro-1-benzofuran-4-yl)-1H-pyrazolo[3,4-d]pyrimidin-1-yl]methyl}-5-(1-methyl-1H-pyrrol-2-yl)-3-(1H-pyrrol-1-yl)quinazolin-4(3H)-one]
60 to 80	80 to 100	Cc1cc(C)n(-n2c(Cn3nc(-c4ccc(O)c5c4CC(C)(C)O5)c4c(N)ncnc43)nc3cccc(C)c3c2=O)n1 [compound 11, 2-{[4-amino-3-(7-hydroxy-2,2-dimethyl-2,3-dihydro-1-benzofuran-4-yl)-1H-pyrazolo[3,4-d]pyrimidin-1-yl]methyl}-3-(3,5-dimethyl-1H-pyrazol-1-yl)-5-methylquinazolin-4(3H)-one]
60 to 80	80 to 100	Cc1ccc(C2(n3c(Cn4nc(-c5ccc(O)c6c5CC(C)(C)O6)c5c(N)ncnc54)nc4cccc(-c5ccnn5C)c4c3=O)CC2)cc1 [compound 40, 2-{[4-amino-3-(7-hydroxy-2,2-dimethyl-2,3-dihydro-1-benzofuran-4-yl)-1H-pyrazolo[3,4-d]pyrimidin-1-yl]methyl}-3-[1-(4-methylphenyl)cyclopropyl]-5-(1-methyl-1H-pyrazol-5-yl)quinazolin-4(3H)-one]
60 to 80	80 to 100	CC1(C)Cc2c(-c3nn(Cc4nc5cccc(C#CCN6CCOCC6)c5c(=O)n4-n4cccc4)c4ncnc(N)c34)ccc(O)c2O1 [compound 35, 2-{[4-amino-3-(7-hydroxy-2,2-dimethyl-2,3-dihydro-1-benzofuran-4-yl)-1H-pyrazolo[3,4-d]pyrimidin-1-yl]methyl}-5-[3-(morpholin-4-yl)prop-1-yn-1-yl]-3-(1H-pyrrol-1-yl)quinazolin-4(3H)-one]
80 to 100	80 to 100	Cc1cc(C)n(-n2c(Cn3nc(-c4ccc(O)c5c4CC(C)(C)O5)c4c(N)ncnc43)nc3cccc(Cl)c3c2=O)n1 [compound 12, 2-{[4-amino-3-(7-hydroxy-2,2-dimethyl-2,3-dihydro-1-benzofuran-4-yl)-1H-pyrazolo[3,4-d]pyrimidin-1-yl]methyl}-5-chloro-3-(3,5-dimethyl-1H-pyrazol-1-yl)quinazolin-4(3H)-one]
80 to 100	80 to 100	CC1(C)Cc2c(-c3nn(Cc4nc5cccc(C#CCN6CCNC(=O)C6)c5c(=O)n4-n4cccc4)c4ncnc(N)c34)ccc(O)c2O1 [compound 58, 2-{[4-amino-3-(7-hydroxy-2,2-dimethyl-2,3-dihydro-1-benzofuran-4-yl)-1H-pyrazolo[3,4-d]pyrimidin-1-yl]methyl}-5-[3-(3-oxopiperazin-1-yl)prop-1-yn-1-yl]-3-(1H-pyrrol-1-yl)quinazolin-4(3H)-one]
60 to 80	80 to 100	CC1(C)Cc2c(-c3nn(Cc4nc5cccc(-c6ccncc6)c5c(=O)n4C4(c5ccccc5)CC4)c4ncnc(N)c34)ccc(O)c2O1 [compound 21, 2-{[4-amino-3-(7-hydroxy-2,2-dimethyl-2,3-dihydro-1-benzofuran-4-yl)-1H-pyrazolo[3,4-d]pyrimidin-1-yl]methyl}-3-(1-phenylcyclopropyl)-5-(pyridin-4-yl)quinazolin-4(3H)-one]
60 to 80	80 to 100	Cc1ccccc1C1(n2c(Cn3nc(-c4ccc(O)c5c4CC(C)(C)O5)c4c(N)ncnc43)nc3cccc(Cl)c3c2=O)CC1 [compound 55, 2-{[4-amino-3-(7-hydroxy-2,2-dimethyl-2,3-dihydro-1-benzofuran-4-yl)-1H-pyrazolo[3,4-d]pyrimidin-1-yl]methyl}-5-chloro-3-[1-(2-methylphenyl)cyclopropyl]quinazolin-4(3H)-one]
60 to 80	80 to 100	Cc1cccc2nc(Cn3nc(-c4ccc(O)c5c4CC(C)(C)O5)c4c(N)ncnc43)n(C3(c4cccs4)CC3)c(=O)c12 [compound 60, 2-{[4-amino-3-(7-hydroxy-2,2-dimethyl-2,3-dihydro-1-benzofuran-4-yl)-1H-pyrazolo[3,4-d]pyrimidin-1-yl]methyl}-5-methyl-3-[1-(thiophen-2-yl)cyclopropyl]quinazolin-4(3H)-one]
